In brackets after ≈: the same amount, converted by molar mass. Like-named read-outs stand apart in the source and are kept apart here.
Legend:
HDAC3/NcoR2 = HDAC3/NcoR2 (Homo sapiens, UniProt O15379); experiment: In vitro HDAC inhibition preincubation assay (ZMAL substrate)
[1] = Solubility in PBS buffer by OECD flask method with HPLC quantification; format: physicochemical
HDAC2 [2] = molecular target: T1, HDAC2 (Homo sapiens, UniProt Q92769); experiment: In vitro HDAC inhibition preincubation assay (ZMAL substrate)
T1 sequence (Q92769 whole entry): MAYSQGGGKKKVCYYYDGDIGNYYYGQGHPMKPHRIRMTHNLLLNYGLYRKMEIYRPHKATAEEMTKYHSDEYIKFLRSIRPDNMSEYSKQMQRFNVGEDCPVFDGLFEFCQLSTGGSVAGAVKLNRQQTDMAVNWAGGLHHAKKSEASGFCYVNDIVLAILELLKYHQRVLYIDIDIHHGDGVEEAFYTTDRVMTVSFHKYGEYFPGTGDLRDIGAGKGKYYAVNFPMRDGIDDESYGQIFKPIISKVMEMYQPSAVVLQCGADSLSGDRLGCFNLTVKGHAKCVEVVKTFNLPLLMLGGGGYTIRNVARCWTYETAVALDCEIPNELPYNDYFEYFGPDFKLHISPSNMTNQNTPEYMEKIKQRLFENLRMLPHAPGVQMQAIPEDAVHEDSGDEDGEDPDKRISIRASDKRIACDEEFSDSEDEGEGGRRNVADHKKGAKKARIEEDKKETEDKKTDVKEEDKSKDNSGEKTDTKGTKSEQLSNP

[3] = LogD7.4 by OECD slow-stirring method with HPLC quantification; conditions: 1-octanol/PBS buffer (mutually saturated)
human recombinant HDAC6 = molecular target: T2, human recombinant HDAC6 (Homo sapiens, UniProt Q9UBN7); experiment: In vitro HDAC inhibition preincubation assay (ZMAL substrate)
T2 sequence (Q9UBN7 1-1215): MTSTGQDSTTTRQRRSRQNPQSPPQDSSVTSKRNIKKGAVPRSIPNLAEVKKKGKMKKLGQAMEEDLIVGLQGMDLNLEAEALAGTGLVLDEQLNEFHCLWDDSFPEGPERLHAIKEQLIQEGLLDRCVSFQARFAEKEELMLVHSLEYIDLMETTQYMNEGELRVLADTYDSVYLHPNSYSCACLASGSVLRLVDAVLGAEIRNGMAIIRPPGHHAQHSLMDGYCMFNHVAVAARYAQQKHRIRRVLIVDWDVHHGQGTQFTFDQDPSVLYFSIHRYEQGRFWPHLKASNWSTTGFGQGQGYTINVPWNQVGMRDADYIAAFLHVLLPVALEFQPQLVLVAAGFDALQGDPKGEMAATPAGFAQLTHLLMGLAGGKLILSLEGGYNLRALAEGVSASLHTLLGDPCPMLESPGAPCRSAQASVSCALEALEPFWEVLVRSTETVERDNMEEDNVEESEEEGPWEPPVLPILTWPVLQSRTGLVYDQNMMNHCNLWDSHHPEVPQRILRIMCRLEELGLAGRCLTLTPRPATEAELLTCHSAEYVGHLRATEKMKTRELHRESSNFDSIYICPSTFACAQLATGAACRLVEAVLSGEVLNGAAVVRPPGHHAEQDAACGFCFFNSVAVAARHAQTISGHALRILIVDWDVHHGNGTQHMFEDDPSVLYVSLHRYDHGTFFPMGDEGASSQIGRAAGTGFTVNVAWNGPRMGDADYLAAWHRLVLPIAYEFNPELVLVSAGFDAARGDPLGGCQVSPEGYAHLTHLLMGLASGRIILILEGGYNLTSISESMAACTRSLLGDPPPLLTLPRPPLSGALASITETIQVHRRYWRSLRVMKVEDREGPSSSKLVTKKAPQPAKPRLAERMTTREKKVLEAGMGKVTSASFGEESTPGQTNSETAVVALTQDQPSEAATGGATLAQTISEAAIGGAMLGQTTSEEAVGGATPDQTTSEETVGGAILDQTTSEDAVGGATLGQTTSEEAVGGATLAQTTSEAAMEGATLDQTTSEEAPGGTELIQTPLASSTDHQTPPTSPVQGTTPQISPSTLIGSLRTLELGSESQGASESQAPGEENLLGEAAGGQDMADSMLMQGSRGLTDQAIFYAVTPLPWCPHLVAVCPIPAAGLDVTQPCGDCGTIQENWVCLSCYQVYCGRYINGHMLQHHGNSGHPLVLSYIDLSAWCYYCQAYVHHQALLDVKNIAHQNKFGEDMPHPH

HDAC1 [4] = molecular target: T3, HDAC1 (Homo sapiens, UniProt Q13547); experiment: as above
T3 sequence (Q13547 whole entry): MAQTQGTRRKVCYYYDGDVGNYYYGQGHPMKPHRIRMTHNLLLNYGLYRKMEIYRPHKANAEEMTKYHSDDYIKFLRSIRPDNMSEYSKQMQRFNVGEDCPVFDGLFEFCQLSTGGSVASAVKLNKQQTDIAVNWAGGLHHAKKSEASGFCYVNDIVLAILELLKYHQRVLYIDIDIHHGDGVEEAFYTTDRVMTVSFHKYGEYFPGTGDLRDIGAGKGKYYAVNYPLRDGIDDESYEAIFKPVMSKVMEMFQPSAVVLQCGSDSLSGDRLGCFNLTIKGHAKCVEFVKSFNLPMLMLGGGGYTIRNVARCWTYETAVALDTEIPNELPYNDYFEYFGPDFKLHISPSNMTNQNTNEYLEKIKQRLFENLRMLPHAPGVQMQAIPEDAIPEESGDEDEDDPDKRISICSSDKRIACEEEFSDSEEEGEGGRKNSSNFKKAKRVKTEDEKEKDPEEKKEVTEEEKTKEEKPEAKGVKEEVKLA

[5] = test system: BT‐474 breast cancer cell line; experiment: WST-8 cell viability assay; conditions: Homo sapiens, BT-474, 120 h, read-out: IC50 BT‐474
HDAC1 [6] = molecular target: T3, HDAC1; experiment: 100-fold Jump-Dilution experiments; format: biochemical; conditions: diluted inhibitor concentration as indicated per compound, vehicle [DMSO 1 %]=111.9
HDAC1 [7] = molecular target: T3, HDAC1; experiment: IC50-shift experiments (varied preincubation time); format: biochemical; conditions: triplicates
[8] = test system: acetylated α‐tubulin (HDAC6 activity) in MCF‐7 cells; experiment: Western blot target engagement in MCF-7 cells: acetylated α-tubulin; format: cell-based, human; conditions: MCF-7 cell lysates after 24-hour treatment
HDAC1 [9] = molecular target: T3, HDAC1; experiment: Binding kinetics via the Progression Method; format: biochemical; conditions: relationship between kobs and [I]; triplicates
Experimental: (§1) To determine the binding mechanism at the respective HDAC isoform, a series of progression curves were generated, using fixed concentrations of enzyme, substrate, and different inhibitor concentrations. The in situ AMC release was monitored continuously by fluorescence readings recorded every 30 s for 60 or 90 min at 37 °C. The data of each progression curve were fitted to the appropriate equation (Prism 9.1.0 for MacOS). For inhibitors showing slow‐binding Mechanism I&II (Figure 5) time‐dependent product formation follows Eq. 1: (Eq. 1) P=vsst+vin-vss/kobs1-e^-kobst
(§2) where [P] is the amount of generated AMC, which directly correlates with the amount of deacetylated substrate over time [t]. V in and v ss are the initial and final steady‐state velocities of product formation and k obs is the apparat first‐order rate constant for the conversion from the initial velocity to the steady‐state velocity. It characterizes the formation of an enzyme–inhibitor equilibrium.
Fast‐on/fast‐off inhibitors. […] In this case Eq. 1 simplifies as follows: (Eq. 2) P=vsst
Therefore, the deacetylation rate in absence (v 0) and presence (v i) of the inhibitor is constant over time. […] [I] and [S] are the inhibitor and substrate concentrations, respectively and K m is the Michaelis‐Menten constant.
Slow‐binding inhibitors. The slow‐binding Mechanisms I & II are distinguished by their respective relationships between k obs and the inhibitor concentration. For the single‐step slow‐binding Mechanism I the relationship between inhibitor concentration and k obs is linear. The association and dissociation rate constants (k 1 & k −1, see Figure 5) can be obtained by fitting k obs as a function of [I] to Eq. 4. (Eq. 4) kobs=k-1+k11+S/KmI
The secondary association and dissociation rate constants k 2 & k −2 (see Figure 5) as well as the equilibrium dissociation constant K i,1 of the initial inhibitor‐enzyme encounter complex [EI] can be obtained by fitting k obs as a function of [I] (Eq. 5. (Eq. 5) kobs=k-2+k2/I+Ki,11+S/KmI
Determination of binding kinetics via the Progression Method.[14] HDAC1 and HDAC3
deacetylase activities were evaluated at varying inhibitor concentrations. Appropriate inhibitor
concentrations were chosen based on the previously determined IC50 values. To ensure substrate
excess during the experiment, the substrate concentration was set to five times Km. Km was
determined using a series of substrate concentrations.
For the progression curves, the
respective enzyme was incubated with the fluorogenic substrate and inhibitor in assay buffer
(§3) 90 minutes at 37°C. The relationship between AMC concentration and relative fluorescence units
(RFU) was determined and the measured RFU were transformed into the respective AMC
concentration in µM. […]

[10] = test system: T‐47D breast cancer cell line; experiment: WST-8 cell viability assay; conditions: Homo sapiens, T47D, 120 h, read-out: IC50 T‐47D
MCF‐7 cells = experiment: Modified wound healing (migration) assay; format: cell-based, human; conditions: MCF-7, 10 μM, followed over 97 h, compared to DMSO control
Experimental: Migration assay. 3D printed (size: 0.5 mm gap) culture-inserts (custom made) were used for pre-
After preincubation with DMSO (1%) or HDACi (10µM) for 24 h medium was removed, wells were washed once with PBS and fresh FCS-free medium with same inhibitor added.
a Axiovert 200 microscope (Carl-Zeiss, Jena, Germany). Migration speed was quantified as reduced scratch wound over time.

HDAC2 [11] = molecular target: T1, HDAC2; experiment: IC50-shift experiments (varied preincubation time); format: biochemical; set-up: purchased BPS Bioscience 50052; conditions: triplicates
Experimental: into OptiPlate-96 black micro-plates (PerkinElmer).
Afterwards, the fluorogenic substrate ZMAL
The total assay volume (50 µL,
max. […] Subsequently, 50 µL trypsin solution (0.4
enzymes and the respective inhibitor dilutions were preincubated at 20 °C for 5 to 120 minutes.
Afterwards, the assay protocol was continued as stated above. Compounds were tested in
triplicates and the assay was rerun if necessary. The respective IC50 values and P95 confidence
intervals were determined using Prism 9 for MacOS.

[12] = test system: MCF‐7 breast cancer cell line; experiment: WST-8 cell viability assay; conditions: Homo sapiens, MCF7, 120 h, read-out: IC50 MCF‐7
HDAC3 = HDAC3 (Homo sapiens, UniProt O15379); experiment: Binding kinetics via the Progression Method; format: biochemical
Sequence of HDAC3 (O15379 whole entry): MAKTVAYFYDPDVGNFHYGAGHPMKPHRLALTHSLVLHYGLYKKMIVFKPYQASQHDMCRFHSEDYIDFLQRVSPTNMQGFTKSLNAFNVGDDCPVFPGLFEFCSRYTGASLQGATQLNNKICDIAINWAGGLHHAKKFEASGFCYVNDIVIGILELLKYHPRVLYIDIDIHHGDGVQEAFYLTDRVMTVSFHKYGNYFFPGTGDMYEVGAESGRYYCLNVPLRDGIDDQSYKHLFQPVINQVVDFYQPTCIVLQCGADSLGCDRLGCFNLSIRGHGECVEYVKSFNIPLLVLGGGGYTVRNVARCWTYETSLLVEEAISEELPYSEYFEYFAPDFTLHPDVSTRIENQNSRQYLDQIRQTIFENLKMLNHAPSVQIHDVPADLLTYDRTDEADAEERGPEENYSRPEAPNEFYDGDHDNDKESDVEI
Sequence of HDAC3 (Q9Y618 395-489 partner limits assumed): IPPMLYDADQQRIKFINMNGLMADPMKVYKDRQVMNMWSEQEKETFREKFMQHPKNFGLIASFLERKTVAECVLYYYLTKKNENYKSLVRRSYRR
Experimental: as §1, §2
Fast‐on/fast‐off inhibitors. […]
deacetylase activities were evaluated at varying inhibitor concentrations. […]
concentrations were chosen based on the previously determined IC50 values. […]
determined using a series of substrate concentrations. […]
as §3
(RFU) was determined and the measured RFU were transformed into the respective AMC […]

[13] = 25 °C, pH 7.4, aqueous buffer, thermodynamic from solid, pH=7.4, flask method, 25 °C, 72 h, mean ±SD, read-out: Solubility
[14] = pH 7.4, LogD7.4, slow-stirring method, 1-octanol/PBS buffer pH 7.4, 25 °C, 48 h
[15] = HDAC2 IC50, preincubation 5 min, preincubation time 5 min at 20°C
[16] = HDAC2 IC50, preincubation 15 min, preincubation time 15 min at 20°C
[17] = HDAC2 IC50, preincubation 30 min, preincubation time 30 min at 20°C
[18] = HDAC2 IC50, preincubation 60 min, preincubation time 60 min at 20°C
[19] = HDAC2 IC50, preincubation 120 min, preincubation time 120 min at 20°C

Sequence of HDAC3/NcoR2 (O15379 whole entry): as the sequence (O15379 whole entry) above
Sequence of HDAC3/NcoR2 (Q9Y618 395-489 partner limits assumed): as the sequence (Q9Y618 395-489 partner limits assumed) above

Row | SMILES | IC50 (HDAC3/NcoR2) [nM] | solubility at 72 h [1, 13] [µg/mL] | IC50 (HDAC2 [2]) [nM] | logD at 48 h [3, 14] | IC50 (human recombinant HDAC6) [nM] | IC50 (HDAC1 [4]) [nM] | IC50 [5] [nM] | IC50 [10] [nM] | IC50 [12] [nM] | further results
1 | CC(=O)Nc1ccc(C(=O)Nc2cc(-c3ccccc3)ccc2N)cc1 [6 a] | 3960 | 1.49 ± 0.14 (≈ 4.31 µM) | 51.4 ± 4.9 | 2.63 | > 10000 | 4.5 ± 0.1 | – | – | – | –
2 | CC(=O)Nc1ccc(C(=O)Nc2cc(-c3ccc(F)cc3)ccc2N)cc1 [6 b] | 2000 | 0.45 ± 0.04 (≈ 1.24 µM) | 44.7 ± 6.9 | 3.41 | > 10000 | 4.4 ± 0.1 | – | – | – | –
3 | CC(=O)Nc1ccc(C(=O)Nc2cc(-c3cccs3)ccc2N)cc1 [6 c] | – | 0.74 ± 0.01 (≈ 2.11 µM) | – | 2.8 | – | – | – | – | – | –
4 | CC(=O)Nc1ccc(C(=O)Nc2cc(-c3ccncc3)ccc2N)cc1 [6 d] | 8910 | 16.5 ± 0.3 (≈ 47.6 µM) | 77.2 ± 9.2 | 1.75 | > 10000 | 13.2 ± 1 | > 8000 | 1010 ± 190 | 11100 ± 3850 | Final slope of progression curve after 100-fold dilution (HDAC1) (HDAC1 [6]): 39.4 RFU*min^−1; IC50 (HDAC1 [7]; HDAC1 IC50, preincubation 5 min, preincubation time 5 min at 20°C): 54.1 nM; IC50 (HDAC1 [7]; HDAC1 IC50, preincubation 15 min, preincubation time 15 min at 20°C): 53.5 nM; IC50 (HDAC1 [7]; HDAC1 IC50, preincubation 30 min, preincubation time 30 min at 20°C): 44.5 nM; IC50 (HDAC1 [7]; HDAC1 IC50, preincubation 60 min, preincubation time 60 min at 20°C): 40.8 nM; IC50 (HDAC1 [7]; HDAC1 IC50, preincubation 120 min, preincubation time 120 min at 20°C): 25.4 nM; acetylated α‐tubulin (western blot) [8]: non‐detectable; binding mechanism at HDAC1 (HDAC1 [9]): slow‐binding Mechanism II; effect on cell migration (wound closure) (MCF‐7 cells): attenuated cell migration significantly; IC50 (HDAC2 [11]; [15]): 98.2 nM; IC50 (HDAC2 [11]; [16]): 89 nM; IC50 (HDAC2 [11]; [17]): 83 nM; IC50 (HDAC2 [11]; [18]): 77.4 nM; IC50 (HDAC2 [11]; [19]): 63.2 nM; selectivity for HDAC1 over HDAC3 (HDAC1 [4]; ratio of IC50 values HDAC3/HDAC1): 675 fold
5 | CC(=O)Nc1ccc(C(=O)Nc2cc(-c3cccnc3)ccc2N)cc1 [6 e] | 636 ± 49.5 | 37.7 ± 3.61 (≈ 109 µM) | 101 ± 5.4 | 1.7 | > 10000 | 76.7 ± 9.2 | – | – | – | –
6 | CC(=O)Nc1ccc(C(=O)Nc2cc(-c3ccccn3)ccc2N)cc1 [6 f] | 17400 | 42 ± 0.19 (≈ 121 µM) | 333 ± 5.1 | 1.77 | > 10000 | 207 ± 4.4 | – | – | – | –
7 | CC(=O)Nc1ccc(C(=O)Nc2cc(-c3ccc(F)nc3)ccc2N)cc1 [6 g] | 767 ± 31.7 | 7.66 ± 0.08 (≈ 21 µM) | 118 ± 4 | 1.97 | > 10000 | 93.5 ± 2.4 | – | – | – | –
8 | CC(=O)Nc1ccc(C(=O)Nc2cc(-c3cccnc3F)ccc2N)cc1 [6 h] | 2870 | 1.58 ± 0.14 (≈ 4.34 µM) | 228 ± 7.8 | 1.79 | > 10000 | 153 ± 22.1 | – | – | – | –
9 | CC(=O)Nc1ccc(C(=O)Nc2cc(-c3ccnc(F)c3)ccc2N)cc1 [6 i] | 5870 | 3.72 ± 0.44 (≈ 10.2 µM) | 211 ± 5.4 | 2.2 | > 10000 | 329 ± 20.8 | – | – | – | –
10 | CN(C)c1ccc(C(=O)N(CC(=O)NCc2ccccc2)Cc2ccc(C(=O)Nc3cc(-c4ccncc4)ccc3N)cc2)cc1 [10 a] | > 6670 | – | 100 ± 2.6 | – | – | 41.8 ± 0.2 | 3930 ± 560 | 2570 ± 930 | 3240 ± 820 | –
11 | CN(C)c1ccc(C(=O)N(CC(=O)NC2CCCCC2)Cc2ccc(C(=O)Nc3cc(-c4ccncc4)ccc3N)cc2)cc1 [10 b] | > 3330 | 1.99 ± 0.04 (≈ 3.29 µM) | 85.5 ± 11.6 | 2.68 | > 10000 | 41.1 ± 3.7 | 2930 ± 430 | 1450 ± 90 | 4330 ± 1540 | –
12 | CN(C)c1ccc(C(=O)N(CC(=O)NC(C)(C)C)Cc2ccc(C(=O)Nc3cc(-c4ccncc4)ccc3N)cc2)cc1 [10 c] | 16800 | 7.48 ± 0.33 (≈ 12.9 µM) | 59.3 ± 7.9 | 2.29 | > 10000 | – | 2550 ± 400 | 1580 ± 480 | 1620 ± 320 | acetylated α‐tubulin (western blot) [8]: non‐detectable; effect on cell migration (wound closure) (MCF‐7 cells): attenuated cell migration comparably and significantly; effect on cell migration (wound closure) (MCF‐7 cells; listed as LSH‐A54): attenuated cell migration significantly; IC50 (HDAC2 [11]; [15]): 117 nM; IC50 (HDAC2 [11]; [16]): 106 nM; IC50 (HDAC2 [11]; [17]): 109 nM; IC50 (HDAC2 [11]; [18]): 84 nM; IC50 (HDAC2 [11]; [19]): 78.1 nM
13 | CC(=O)Nc1ccc(C(=O)Nc2ccccc2N)cc1 [CI‐994, tacedinaline, reference compound] | – | 200 ± 1.8 (≈ 743 µM) | – | 0.84 | – | – | – | – | – | –
14 | Nc1ccccc1NC(=O)c1ccc(CNC(=O)OCc2cccnc2)cc1 [entinostat, reference compound] | – | – | – | – | – | – | 7090 ± 1000 | 2910 ± 890 | 8980 ± 3000 | acetylated α‐tubulin (western blot) [8]: non‐detectable; binding mechanism at HDAC1 (HDAC1 [9]): slow-binding Mechanism II; effect on cell migration (wound closure) (MCF‐7 cells): no significant effect on cell migration
15 | O=C(CCCCCCC(=O)Nc1ccccc1)NO [vorinostat, reference compound] | – | 255 ± 3.71 (≈ 965 µM) | – | 0.99 | – | – | – | – | – | solubility at 72 h ([1]; 25 °C, pH 7.4, aqueous buffer, thermodynamic from solid, PBS buffer pH 7.4, single experiment II, read-out: Solubility (II)): 259 µg/mL (≈ 980 µM); solubility at 72 h ([1]; pH 7.4, PBS buffer pH 7.4, mean of two experiments (SD 0.00371), read-out: Solubility): 255 µg/mL (≈ 966 µM); solubility at 72 h ([1]; pH 7.4, PBS buffer pH 7.4, single experiment I, read-out: Solubility (I)): 252 µg/mL (≈ 952 µM); logD at 48 h ([3]; pH 7.4, LogD(7.4) (I), single slow-stirring experiment I): 1.01; logD at 48 h ([3]; pH 7.4, LogD(7.4) (II), single slow-stirring experiment II): 0.962; logD at 48 h ([3]; pH 7.4, LogD(7.4) (III), single slow-stirring experiment III): 0.999; binding mechanism at HDAC3 (HDAC3): fast‐on/fast‐off binding kinetic; binding mechanism at HDAC1 (HDAC1 [9]): fast‐on/fast‐off binding kinetic

From paper PMC9303312, “Balancing Histone Deacetylase (HDAC) Inhibition and Drug‐likeness: Biological and Physicochemical Evaluation of Class I Selective HDAC Inhibitors” (Chemmedchem, 2022)
